Read-outs that look alike come from different tables or passages of the source. Values belong to the molecule of their own block, whether it stands above or below them. *1 amine or outer side, *2 acyl side, *3 side chain or, on linkers, in order; H or OH if unused. Where a SMILES comes first, the peptide text is derived from it. [ ]: non-standard residue; d: D form. ξ: configuration not given here. MeBmt = C/C=C/C[C@@H](C)[C@@H](O)[C@H](NC)C(=O)O; X1 = CN([C@H](SCCCN1CCOCC1)C(=O)[*:2])[*:1]; X2 = CCN(CC)CCCS[C@H](C(=O)[*:2])N(C)[*:1]; NMeIle(3ξ) = CCC(C)[C@H](NC)C(=O)O; NMeL = CN[C@@H](CC(C)C)C(=O)O; NMeV = CN[C@H](C(=O)O)C(C)C; Abu = CC[C@H](N)C(=O)O
Tests used:
[1] = Stability testing: epimerization of cyclosporin derivatives in methanol, monitored by HPLC; assay type: physicochemical; conditions: for Epimerization % after 168 hours: Table 11, MeOH at 50° C.-58° C.; for Epimerization %: Table 10, MeOH at 50° C.
[2] = test system: HCV replicon in cell line ET (luc-ubi-neo/ET), Huh7 human hepatoma; assay: HCV subgenomic replicon assay, luciferase end point; assay type: cell-based; conditions: read-out: Antiviral activity EC50
[3] = HCV subgenomic replicon, cell line ET (luc-ubi-neo/ET) Huh7, luciferase end point
[4] = Table 12, HCV replicon luciferase

- Epimerization % after 168 hours [1]: 0%
Molecule: C/C=C/C[C@@H](C)[C@@H](O)[C@H]1C(=O)N[C@@H](CC)C(=O)N(C)[C@H](COCCN(CC)CC)C(=O)N(C)[C@@H](CC(C)(C)O)C(=O)N[C@@H](C(C)C)C(=O)N(C)[C@@H](CC(C)C)C(=O)N[C@@H](C)C(=O)N[C@H](C)C(=O)N(C)[C@@H](CC(C)C)C(=O)N(C)[C@@H](CC(C)C)C(=O)N(C)[C@@H](C(C)C)C(=O)N1C

- Epimerization % ([1]; 29 hours): 0%
- Epimerization % ([1]; 77 hours): Less than 1%
- Epimerization % ([1]; 125 hours): ~12%
Molecule: C/C=C/C[C@@H](C)[C@@H](O)[C@H]1C(=O)N[C@@H](CC)C(=O)N(C)[C@H](SCCCN(CC)CC)C(=O)N(C)[C@@H](CC(C)(C)O)C(=O)N[C@@H](C(C)C)C(=O)N(C)[C@@H](CC(C)C)C(=O)N[C@@H](C)C(=O)N[C@H](C)C(=O)N(C)[C@@H](CC(C)C)C(=O)N(C)[C@@H](CC(C)C)C(=O)N(C)[C@@H](C(C)C)C(=O)N1C

- Epimerization % after 168 hours [1]: 0%
Molecule: C/C=C/C[C@@H](C)[C@@H](O)[C@H]1C(=O)N[C@@H](CC)C(=O)N(C)[C@H](CSCCCN(C)C)C(=O)N(C)[C@@H](CC(C)(C)O)C(=O)N[C@@H](C(C)C)C(=O)N(C)[C@@H](CC(C)C)C(=O)N[C@@H](C)C(=O)N[C@H](C)C(=O)N(C)[C@@H](CC(C)C)C(=O)N(C)[C@@H](CC(C)C)C(=O)N(C)[C@@H](C(C)C)C(=O)N1C

- Epimerization % ([1]; 29 hours): 0%
- Epimerization % ([1]; 77 hours): 0%
- Epimerization % ([1]; 125 hours): 0%
Molecule: C/C=C/C[C@@H](C)[C@@H](O)[C@H]1C(=O)N[C@@H](CC)C(=O)N(C)[C@H](SCCCN(CC)CC)C(=O)N(C)[C@@H](C(C)C)C(=O)N[C@@H](C(C)C)C(=O)N(C)[C@@H](CC(C)C)C(=O)N[C@@H](C)C(=O)N[C@H](C)C(=O)N(C)[C@@H](CC(C)C)C(=O)N(C)[C@@H](CC(C)C)C(=O)N(C)[C@@H](C(C)C)C(=O)N1C (cyclo(A[dA][NMeL][NMeL][NMeV][MeBmt][Abu][X2][NMeV]V[NMeL]))

- Epimerization % after 168 hours [1]: 0%
Molecule: C/C=C/C[C@@H](C)[C@@H](O)[C@H]1C(=O)N[C@@H](CC)C(=O)N(C)[C@H](CSCCCN2CCOCC2)C(=O)N(C)[C@@H](CC(C)(C)O)C(=O)N[C@@H](C(C)C)C(=O)N(C)[C@@H](CC(C)C)C(=O)N[C@@H](C)C(=O)N[C@H](C)C(=O)N(C)[C@@H](CC(C)C)C(=O)N(C)[C@@H](CC(C)C)C(=O)N(C)[C@@H](C(C)C)C(=O)N1C

- Epimerization % ([1]; 29 hours): 0%
- Epimerization % ([1]; 77 hours): 0%
- Epimerization % ([1]; 125 hours): 0%
Molecule: C/C=C/C[C@@H](C)[C@@H](O)[C@H]1C(=O)N[C@@H](CC)C(=O)N(C)[C@H](SCCCN2CCOCC2)C(=O)N(C)[C@@H](C(C)CC)C(=O)N[C@@H](C(C)C)C(=O)N(C)[C@@H](CC(C)C)C(=O)N[C@@H](C)C(=O)N[C@H](C)C(=O)N(C)[C@@H](CC(C)C)C(=O)N(C)[C@@H](CC(C)C)C(=O)N(C)[C@@H](C(C)C)C(=O)N1C (stereo partly drawn) (cyclo(A[dA][NMeL][NMeL][NMeV][MeBmt][Abu][X1][NMeIle(3ξ)]V[NMeL]))

- Epimerization % after 168 hours [1]: 0%
Molecule: C/C=C/C[C@@H](C)[C@@H](O)[C@H]1C(=O)N[C@@H](CC)C(=O)N(C)[C@H](CSCCCN2CCCCC2)C(=O)N(C)[C@@H](CC(C)(C)O)C(=O)N[C@@H](C(C)C)C(=O)N(C)[C@@H](CC(C)C)C(=O)N[C@@H](C)C(=O)N[C@H](C)C(=O)N(C)[C@@H](CC(C)C)C(=O)N(C)[C@@H](CC(C)C)C(=O)N(C)[C@@H](C(C)C)C(=O)N1C

- Epimerization % after 168 hours [1]: 0%
Molecule: C/C=C/C[C@@H](C)[C@@H](O)[C@H]1C(=O)N[C@@H](CC)C(=O)N(C)[C@H](CSCCN(CC)CC)C(=O)N(C)[C@@H](CC(C)C)C(=O)N[C@@H](C(C)C)C(=O)N(C)[C@@H](CC(C)C)C(=O)N[C@@H](C)C(=O)N[C@H](C)C(=O)N(C)[C@@H](CC(C)C)C(=O)N(C)[C@@H](CC(C)C)C(=O)N(C)[C@@H](C(C)C)C(=O)N1C (single isomer, unassigned)

- Epimerization % after 168 hours [1]: 0%
Molecule: C/C=C/C[C@@H](C)[C@@H](O)[C@H]1C(=O)N[C@@H](CC)C(=O)N(C)[C@H](CSCCN(C)C)C(=O)N(C)[C@@H](CC(C)(C)O)C(=O)N[C@@H](C(C)C)C(=O)N(C)[C@@H](CC(C)C)C(=O)N[C@@H](C)C(=O)N[C@H](C)C(=O)N(C)[C@@H](CC(C)C)C(=O)N(C)[C@@H](CC(C)C)C(=O)N(C)[C@@H](C(C)C)C(=O)N1C

- Epimerization % ([1]; 29 hours): 0%
- Epimerization % ([1]; 77 hours): 0%
- Epimerization % ([1]; 125 hours): 0%
Molecule: C/C=C/C[C@@H](C)[C@@H](O)[C@H]1C(=O)N[C@@H](CC)C(=O)N(C)[C@H](SCCCN(CC)CC)C(=O)N(C)[C@@H](C(C)CC)C(=O)N[C@@H](C(C)C)C(=O)N(C)[C@@H](CC(C)C)C(=O)N[C@@H](C)C(=O)N[C@H](C)C(=O)N(C)[C@@H](CC(C)C)C(=O)N(C)[C@@H](CC(C)C)C(=O)N(C)[C@@H](C(C)C)C(=O)N1C (stereo partly drawn) (cyclo(A[dA][NMeL][NMeL][NMeV][MeBmt][Abu][X2][NMeIle(3ξ)]V[NMeL]))

- Epimerization % ([1]; 29 hours): ~26%
- Epimerization % ([1]; 77 hours): ~32%
- Epimerization % ([1]; 125 hours): ~35%
Molecule: C/C=C/C[C@@H](C)[C@@H](O)[C@H]1C(=O)N[C@@H](CC)C(=O)N(C)[C@H](SCCN(C)C)C(=O)N(C)[C@@H](CC(C)C)C(=O)N[C@@H](C(C)C)C(=O)N(C)[C@@H](CC(C)C)C(=O)N[C@@H](C)C(=O)N[C@H](C)C(=O)N(C)[C@@H](CC(C)C)C(=O)N(C)[C@@H](CC(C)C)C(=O)N(C)[C@@H](C(C)C)C(=O)N1C [drawing 1933]

- Epimerization % after 168 hours [1]: 0%
Molecule: C/C=C/C[C@@H](C)[C@@H](O)[C@H]1C(=O)N[C@@H](CC)C(=O)N(C)[C@H](CSCCN(C)C)C(=O)N(C)[C@@H](CC(C)C)C(=O)N[C@@H](C(C)C)C(=O)N(C)[C@@H](CC(C)C)C(=O)N[C@@H](C)C(=O)N[C@H](C)C(=O)N(C)[C@@H](CC(C)C)C(=O)N(C)[C@@H](CC(C)C)C(=O)N(C)[C@@H](C(C)C)C(=O)N1C (single isomer, unassigned)

Molecule: CC=CCC(C)C(O)C1C(=O)NC(CC)C(=O)N(C)C(CSCCN(C)C(C)C)C(=O)N(C)C(CC(C)(C)O)C(=O)NC(C(C)C)C(=O)N(C)C(CC(C)C)C(=O)NC(C)C(=O)NC(C)C(=O)N(C)C(CC(C)C)C(=O)N(C)C(CC(C)C)C(=O)N(C)C(C(C)C)C(=O)N1C (stereo not drawn)
- EC50 [2, 3]: 0.1 µM

Molecule: CC=CCC(C)C(O)C1C(=O)NC(CC)C(=O)N(C)C(CSCCN(CC)CC)C(=O)N(C)C(CC(C)(C)OC)C(=O)NC(C(C)C)C(=O)N(C)C(CC(C)C)C(=O)NC(C)C(=O)NC(C)C(=O)N(C)C(CC(C)C)C(=O)N(C)C(CC(C)C)C(=O)N(C)C(C(C)C)C(=O)N1C (stereo not drawn)
- EC50 [2, 3]: 0.09 µM

Molecule: C/C=C/C[C@@H](C)[C@@H](O)[C@H]1C(=O)N[C@@H](CC)C(=O)N(C)[C@H](COCCCN(C)C)C(=O)N(C)[C@@H](CC(C)(C)O)C(=O)N[C@@H](C(C)C)C(=O)N(C)[C@@H](CC(C)C)C(=O)N[C@@H](C)C(=O)N[C@H](C)C(=O)N(C)[C@@H](CC(C)C)C(=O)N(C)[C@@H](CC(C)C)C(=O)N(C)[C@@H](C(C)C)C(=O)N1C
- EC50 [2, 3]: 0.26 µM

Molecule: C/C=C/C[C@@H](C)[C@@H](O)[C@H]1C(=O)N[C@@H](CC)C(=O)N(C)[C@H](CSCCN(CC)CC)C(=O)N(C)[C@@H](CC(C)C)C(=O)N[C@@H](C(C)C)C(=O)N(C)[C@@H](CC(C)C)C(=O)N[C@@H](C)C(=O)N[C@H](C)C(=O)N(C)[C@@H](CC(C)C)C(=O)N(C)[C@@H](CC(C)C)C(=O)N(C)[C@@H](C(C)C)C(=O)N1C (single isomer, unassigned; isomer b) [[(S)-(2-(N,N-Diethylamino)ethylthio)methyl-Sar]-3-cyclosporin (isomer B)]
- EC50 [2, 3]: 0.16 µM

Molecule: CC=CCC(C)C(O)C1C(=O)NC(CC)C(=O)N(C)C(SCCNCC(C)(C)C)C(=O)N(C)C(CC(C)C)C(=O)NC(C(C)C)C(=O)N(C)C(CC(C)C)C(=O)NC(C)C(=O)NC(C)C(=O)N(C)C(CC(C)C)C(=O)N(C)C(CC(C)C)C(=O)N(C)C(C(C)C)C(=O)N1C [(R)-2-(N-neo-Pentylamino)ethylthio-Sar]-3-cyclosporin]
- EC50 [2, 4]: 3.09 µM

Molecule: (R)-2-(N-iso-Butyl-N-iso-propylamino)ethylthio-Sar]-3-cyclosporin
- EC50 [2, 4]: 4.65 µM

Molecule: C/C=C/C[C@@H](C)[C@@H](O)[C@H]1C(=O)N[C@@H](CC)C(=O)N(C)[C@H](CSCCN(CC)CC)C(=O)N(C)[C@@H](CC(C)(C)O)C(=O)N[C@@H](C(C)C)C(=O)N(C)[C@@H](CC(C)C)C(=O)N[C@@H](C)C(=O)N[C@H](C)C(=O)N(C)[C@@H](CC(C)C)C(=O)N(C)[C@@H](CC(C)C)C(=O)N(C)[C@@H](C(C)C)C(=O)N1C (single isomer, unassigned; isomer b)
- EC50 [2, 3]: 0.09 µM
- EC50 ([2]; Table 13, HCV replicon luciferase): 0.03 µM

Molecule: C/C=C/C[C@@H](C)[C@@H](O)[C@H]1C(=O)N[C@@H](CC)C(=O)N(C)[C@H](CSCCCN2CCN(C)CC2)C(=O)N(C)[C@@H](CC(C)(C)O)C(=O)N[C@@H](C(C)C)C(=O)N(C)[C@@H](CC(C)C)C(=O)N[C@@H](C)C(=O)N[C@H](C)C(=O)N(C)[C@@H](CC(C)C)C(=O)N(C)[C@@H](CC(C)C)C(=O)N(C)[C@@H](C(C)C)C(=O)N1C
- EC50 [2, 3]: 0.09 µM
- EC50 ([2]; Table 16, HCV replicon luciferase): 0.04 µM

Molecule: CC=CCC(C)C(O)C1C(=O)NC(CC)C(=O)N(C)C(SCCN(CC(C)C)C(C)C)C(=O)N(C)C(CC(C)C)C(=O)NC(C(C)C)C(=O)N(C)C(CC(C)C)C(=O)NC(C)C(=O)NC(C)C(=O)N(C)C(CC(C)C)C(=O)N(C)C(CC(C)C)C(=O)N(C)C(C(C)C)C(=O)N1C [(S)-2-(N-iso-Butyl-N-iso-propylamino)ethylthio-Sar]-3-cyclosporin]
- EC50 [2, 4]: 0.48 µM

— US10647747B2, “Cyclosporin derivatives and uses thereof” (S&T Global Inc., priority 2010, dated 2020)
